# Test results reported in US20160361309A1, “METHODS OF TREATING CANCER PATIENTS RESPONDING TO EZH2 INHIBITOR GSK126” (GLAXOSMITHKLINE INTELLECTUAL PROPERTY (NO.2) LIMITED, priority 2014, published 2016).
# How the values were obtained:
# NALM-6 cells [1] = experiment: Growth inhibition time course (CellTiter-Glo), NALM-6; assay type: cell-based, human; conditions: NALM-6 (EZH2 WT), out to 6 days
# Experimental: (§1) FIG. 5. […] Temporal kinetics of GSK126-induced growth inhibition (A and C) and caspase 3/7 activation (B and D) in NALM-6 (A and B) and SUP-B8 (C and D) over a 6 day time course using Cell Titer-Glo or Caspase-Glo 3/7 (Promega), respectively.
# (§2) Cells were evaluated for sensitivity to GSK126 in a 6-day proliferation assay as described previously (McCabe et al., 2012b). Briefly, cells were seeded into 384 well plates at a density that permitted proliferation for 6 days. Cells were then treated in duplicate with a 20-point 2-fold dilution series of GSK126 or 0.147% DMSO. After incubation with compound for 6 days, cell proliferation was evaluated using CellTiter-Glo (Promega) according to the manufacturer's specifications. Data were fit with a 4-parameter equation to generate a concentration response curve and to determine the concentration of GSK126 required to inhibit 50% of growth (gIC50).
# NALM-6 cells [2] = experiment: Caspase 3/7 assay (Caspase-Glo 3/7), NALM-6; assay type: cell-based, human; conditions: NALM-6 (EZH2 WT), out to 6 days
# From the text: as §1
# (§3) For detection of caspase-3/7 activity, Caspase-Glo 3/7 (Promega) was utilized according to the manufacturer's directions. Values were normalized to CellTiter Glo (Promega) levels at each time point and expressed as a percentage of vehicle treated control.
# [3] = test system: EZH2 WT cell lines (B cell ALL panel); experiment: 6-day cell proliferation assay (CellTiter-Glo), EZH2 WT B cell ALL cell lines; assay type: cell-based; conditions: Homo sapiens, 144 h, 6 days, range over cell lines, read-out: growth IC50 values
# Experimental: (§4) FIG. 4. A687V EZH2 mutant ALL is highly dependent on EZH2 activity. A, Sensitivity of ALL cell lines to EZH2 inhibition with GSK126. Cells were treated with a 20-point 2-fold dilution series of GSK126 (range 36 μM-70 pM) for 6 days and cell growth was measured using Cell Titer-Glo (Promega). Data are represented as the concentration of GSK126 required to inhibit 50% of growth (growth IC50). B, Western blot analysis of H3K27me3, H3K27me2, H3K27me1, and total histone H3 following treatment of NALM-6 or SUP-B8 cell lines with varying concentrations of GSK126 for 72 hours.
# as §2
# [4] = test system: A687V EZH2 mutant SUP-B8 cell line; experiment: 6-day cell proliferation assay (CellTiter-Glo), SUP-B8; assay type: cell-based, human
# Experimental: as §4, §1
# The SUP-B8 acute lymphoblastic leukemia cell line which harbors a heterozygous A687V EZH2 mutation was kindly provided by Dr. Ronald Levy (Stanford University) and was maintained in RPMI-1640 media (MediaTech) supplemented with 10% fetal bovine serum (FBS) (Sigma-Aldrich). All other cell lines were obtained from either ATCC or DSMZ and maintained in the recommended cell culture media.
# as §2
# SUP-B8 cells [5] = experiment: Gene expression profiling (Affymetrix U133 Plus 2.0), SUP-B8; assay type: cell-based, human; conditions: SUP-B8, 500 nM GSK126, 72 hours
# Experimental: (§5) FIG. 6. Activation of gene expression in A687V EZH2, but not WT EZH2, cells. A, Gene expression profiling of SUP-B8 and NALM-6 cells treated for 72 hours with 0.1% DMSO or 500 nM GSK126. […] Green, lower expression. Red, higher expression.
# (§6) SUP-B8 and NALM-6 cells (2×10^5/well) were seeded into six-well tissue culture plates 24 hours before treatment with 0.1% DMSO or 500 nM GSK126 for 72 hours. Cells were collected into Trizol reagent (Invitrogen) and total RNA was isolated via phenol:chloroform extraction and the RNeasy kit (Qiagen) according to the manufacturer's instructions. Total RNA was labeled and hybridized to Affymetrix Human Genome U133 Plus 2.0 oligonucleotide microarrays arrays according to the manufacturer's instructions (Affymetrix, Santa Clara, Calif., USA). CEL files were processed and differentially expressed probe sets were determined as described previously (McCabe et al., 2012b). Briefly, significant probe sets were identified after filtering for detection, an average fold-change >2 or <-2, and p-values adjusted for multiple testing correction by FDR (Benjamini Hochberg)<0.1.
# [6] = test system: Y641 and A677 EZH2 mutant DLBCL cell lines; conditions: many Y641 and A677 EZH2 mutant DLBCL cell lines; previously shown; cited from earlier work
# NALM-6 cells [7] = experiment: Gene expression profiling (Affymetrix U133 Plus 2.0), NALM-6; assay type: cell-based, human; conditions: NALM-6, 500 nM GSK126, 72 hours
# Experimental: as §5, §6
# SUP-B8 cells [8] = experiment: Caspase 3/7 assay (Caspase-Glo 3/7), SUP-B8; assay type: cell-based, human; conditions: SUP-B8, beginning on day 5
# From the text: as §1, §3
# H3K27me3 in SUP-B8 cells = experiment: Western blot analysis of H3K27 methylation after GSK126 treatment; assay type: cell-based, human; conditions: SUP-B8 compared with the most sensitive EZH2 WT cell line NALM-6, 72 hours
# Experimental: as §4
# Cell lysate preparation and western blotting were performed as previously described (McCabe et al., 2012a). Antibodies utilized included: EZH2 (BD Transduction Labs), histone H3 (Abcam), H3K27me1 (ActiveMotif), H3K27me2 (Cell Signaling Technology), H3K27me3 (Cell Signaling Technology), EED (Santa Cruz), SUZ12 (Cell Signaling Technology), or Actin (Sigma). Histone methylation antibody specificity was previously confirmed using full-length recombinant methylated histones harboring mono-, di-, or tri-methylation at H3K4, H3K9, H3K27, H3K36, and H3K79 (McCabe et al., 2012a).
structure (smiles),measurement,setting,value
CC[C@H](C)n1cc(C)c2c(C(=O)NCc3c(C)cc(C)[nH]c3=O)cc(-c3ccc(N4CCNCC4)nc3)cc21 [GSK126],growth inhibition over 6 day time course,NALM-6 cells [1],little growth inhibition
same,activation of caspases 3 or 7,NALM-6 cells [2],no activation of caspases 3 or 7
same,IC50,[3],2500 to 7800 nM
same,IC50,"[4]; Homo sapiens, 144 h, SUP-B8 (heterozygous A687V EZH2), 6 days, CellTiter-Glo, read-out: dose required to inhibit 50% of cell proliferation (growth IC50)",441 nM
same,growth inhibition over 6 day time course,"[4]; SUP-B8, after 4 days of treatment, maximal on day 6",dose-dependent growth inhibition
same,doses at which cell number losses were evident,"[4]; SUP-B8, day 6",above 100 nM
same,up-regulated probes,SUP-B8 cells [5],643
same,inhibition of proliferation,[6],effectively inhibit the proliferation
same,down-regulated probes,NALM-6 cells [7],10
same,up-regulated probes,NALM-6 cells [7],35
same,caspase 3/7 activity,SUP-B8 cells [8],increased in a dose-dependent fashion
same,demethylation of H3K27me3,H3K27me3 in SUP-B8 cells,"comparable, or slightly reduced, demethylation of H3K27me3"
